Experimental data from patent US20210041441A1, “DISCOVERY OF NOVEL MOLECULES AND REPURPOSED DRUGS FOR RAS FAMILY GTPases” (UNM Rainforest Innovations, priority 2018, published 2021).
pIC50, pKd: −log10 of the molar value. “Also recorded” adds a separate entry of the source.

What was measured:
[1] = tested on: H-Ras, H-RasG12V, Rab and Rho subfamilies; conditions: earlier studies; cited from earlier work
[2] = tested on: KRas G12v, HRas G12V, Kras Q61R, Rac1 L61, CDC42; experiment: Equilibrium kinetics assays, real-time Bodipy FL-GTP association and dissociation; assay type: binding, Human
Experimental: Equilibrium Kinetics Assays: GTPase-coupled beads were prepared as described above and were kept on ice until used. Reactions were performed at room temperature in amber micro-centrifuge tubes in an appropriate volume of assay buffer. Bead mixtures were initially incubated on a rotator with Guanabenz acetate (100 μM) or DMSO for 30 min at 4° C. prior to the addition of 1 nM Bodipy FL-GTP. Real-time binding kinetics was recorded using an Accuri C6 flow cytometer. Binding association was followed for 15 minutes at which time excess GTP was added. Disassociation kinetics was followed for an additional 25 minutes. Data was analyzed using GraphPad Prism software. The association time course was fitted to a two phase exponential association and the dissociation time course was fitted to a two phase decay (exponential).
To determine mechanism of action, we evaluated binding and dissociation of Bodipy FL-GTP in real-time kinetic experiments in the presence of Guanabenz acetate or GTP. Tests included pre-binding of Bodipy-FL GTP at 4′ C. or RT in the presence of Mg^2+.
It was then elected to perform association rate analysis, using the order of addition of reagents used in screening, where guanabenz was added first, incubated at 4° C., then Bodipy FL-GTP was added at room temperature.

[3] = tested on: Q61 KRas mutants; experiment: Multiplex flow cytometry Bodipy FL-GTP binding, compound dose response, Q61 mutants; set-up: species or system Human; conditions: 10 nM Bodipy FL-GTP
Experimental: Bead Coupling: 4 μm diameter, glutathione-beads (GSH-beads), distinguished by ten different intensities of red fluorescence (varying by several orders of magnitude of emission at 665±10 nm with excitation at 635 nm) were obtained by special order from Duke Scientific Corp. Each polystyrene bead set is supplied at 1.4×10^8 beads/ml with approximately 1.2×10^6 glutathione sites per bead (determined by using GST—green fluorescent protein^42). Prior to incubation with individual GST-GTPase fusion proteins, an appropriate volume of each bead slurry was incubated for 30 minutes at room temperature in assay buffer (20 mM HEPES pH 7.5, 125 μM […], 1 mM MgCl2, 0.5 mM EDTA pH 8.0, 0.01% NP-40) supplemented with 1 mM dithiothreitol and 0.1% BSA. Following this initial incubation, passivated beads were collected by centrifugation and resuspended in assay buffer with individual GST-GTPase fusion proteins at a final concentration of […]. Overnight coupling reactions were carried out at 4° C. with rotation. The amount of each bead type used for coupling and the final volume of the coupling reaction was determined by the experimental protocol. Typically, bead sets are used at a final concentration of 200 bead/μL. To remove unbound GST-GTPase, bead sets were washed twice by centrifugation with ice-cold assay buffer. Individually coated beads were pooled together and kept cold in an appropriate volume before use in binding assays. Bead-bound proteins are sufficiently stable to study secondary interactions between GTPase-GST chimera's and Bodipy-FL GTP^54. Note that an extra GSH-bead set is included that is not protein coupled. This set serves as a ‘scavenger’ for proteins that might dissociate during the binding assay.
For assay screening plates, compound libraries were first dispensed into columns 3-22 using a Labcyte 555 Echo Acoustic Dispenser (San Jose, Calif.) for a final concentration of 10 μM. An equal volume (10 nL) of DMSO was added to the vehicle control wells (column 2). Following the addition of library compounds, 2 μL of assay buffer was added and the plates were mixed before addition of 5 μL of the protein-coupled bead mixtures; 10 μL of assay buffer was added to empty wells in columns 1 and 24. Empty wells serve as wash wells between compound wells and control wells. Plates were mixed and incubated on a rotator for 30 minutes at 4° C. before the addition of 3 μL of Bodipy FL-GTP resulting in a final concentration 10 nM Bodipy FL-GTP. Plates were mixed and incubated for 1 hour at 4° C. Negative controls, containing bead mixtures, Bodipy FL-GTP, and 30 μM unlabeled GTP were assayed separately. Dose response plates were assembled similarly.
Data Acquisition: Assay plates were sampled using the HyperCyt™ high throughput flow cytometry platform (Intellicyt; Albuquerque, N. Mex.). During sampling, the probe moves from well to well and samples 1-2 μL from each well with 0.4 sec transit time in the air before sampling the next well. The resulting sample stream consisting of 384 bubble-separated samples is delivered to an Accuri C6 flow cytometer (BD Biosciences; San Jose, Calif.). Bodipy FL-GTP fluorescence is excited at 488 nm and detected with a 533/30 bandpass filter. […] Gating based on red fluorescence emission distinguishes the separately coated beads. […]

[4] = tested on: Ras family GTPases (KRas WT, G12v, G13d, G12a, G12c, G12d, Q61H, Q61L, Q61R; HRas WT, HRas G12v; CDC42 WT, CDC42 L61; Rac1 WT, Rac1 L61); experiment: Multiplex flow cytometry Bodipy FL-GTP binding, compound screen and dose response; conditions: for class of modulation of Bodipy-GTP binding to Ras family GTPases (pan activator, pan inhibitor, selective inhibitor, mixed activity modulator): multiplex, 10 nM Bodipy FL-GTP, compound 100-0.015 μM, normalized to DMSO
Experimental: Following this initial incubation, passivated beads were collected by centrifugation and resuspended in assay buffer with individual GST-GTPase fusion proteins at a final concentration of 1 M. Overnight coupling reactions were carried out at 4° C. with rotation. The amount of each bead type used for coupling and the final volume of the coupling reaction was determined by the experimental protocol. Typically, bead sets are used at a final concentration of 200 bead/μL. To remove unbound GST-GTPase, bead sets were washed twice by centrifugation with ice-cold assay buffer. Individually coated beads were pooled together and kept cold in an appropriate volume before use in binding assays. Bead-bound proteins are sufficiently stable to study secondary interactions between GTPase-GST chimera's and Bodipy-FL GTP^54. Note that an extra GSH-bead set is included that is not protein coupled. This set serves as a ‘scavenger’ for proteins that might dissociate during the binding assay.
Data Acquisition: Assay plates were sampled using the HyperCyt™ high throughput flow cytometry platform (Intellicyt; Albuquerque, N. Mex.). During sampling, the probe moves from well to well and samples 1-2 μL from each well with 0.4 sec transit time in the air before sampling the next well. […] Plate data are acquired as time-resolved files that are parsed by software-based well identification algorithms, segregating individual well data that is merged with compound library files to determine compound activity in each well. Gating based on red fluorescence emission distinguishes the separately coated beads. Plate performance was validated using the Z-prime calculation^58.
Dose response data points were fitted by Prism® software (GraphPad Software Inc., San Diego, Calif.) using nonlinear least-squares regression in a sigmoidal dose-response model with variable slope, also known as the 4-parameter logistic equation.
Each well of an assay plate contained 10 sets of beads with variable red fluorescent intensities. Nine protein-coupled bead sets, carrying the different GST-KRas proteins were combined with an uncoupled GSH-bead that serves as a scavenger for GST-proteins that might dissociate during the assay. Bead mixtures were dispensed into individual wells of a 384-well assay plate and incubated with fluorescent GTP in the presence of library compounds. The final concentration of reagents in each assay well was 10 μM compound, 10 nM Bodipy FL-GTP, and 0.1% DMSO. Each bead set was added at 200 beads/μL. Each plate was analyzed both in forward (starting with A1) and reverse direction to account for fluorescent compounds that can carryover during sampling and effect subsequent sample values. […] Excess GTP containing wells were evaluated separately and were used, along with the DMSO control wells, to calculate a Z′ value for each bead set. […] A secondary single point evaluation was performed on these identified primary hits.

[5] = tested on: GTPases (Rac1 and Cdc42); conditions: in cells, earlier studies; read-out: IC50 values for inhibitory activity against the GTPases; cited from earlier work
[6] = tested on: GTPases; conditions: cited from earlier work
[7] = biological target: KRas proteins (Wild type, G12v, G13d, G12a, G12c, G12d, Q61L, and Q61R); experiment: Dose dependent Bodipy FL-GTP binding assay, KRas multiplex; set-up: species or system Human; conditions: separate KRas proteins, 1 hour at 4° C.; read-out: binding affinities
Source text: Bead Coupling: 4 μm diameter, glutathione-beads (GSH-beads), distinguished by ten different intensities of red fluorescence (varying by several orders of magnitude of emission at 665±10 nm with excitation at 635 nm) were obtained by special order from Duke Scientific Corp. Each polystyrene bead set is supplied at 1.4×10^8 beads/ml with approximately 1.2×10^6 glutathione sites per bead (determined by using GST—green fluorescent protein^42). […] The amount of each bead type used for coupling and the final volume of the coupling reaction was determined by the experimental protocol. […]
Dose Dependent Bodipy FL-GTP Binding Assays: For dose dependence binding assays, GTPase-coupled bead sets were incubated on a rotator for 1 hour at 4° C. with varying concentrations of Bodipy FL-GTP (0.3-300 nM). […] Non-specific binding of Bodipy-FL GTP was assessed by incubating coupled beads with excess GTP prior to the addition of the Bodipy analogue. […]
Assay Plate Assembly: Plate assays were performed in 384-well microtiter plates (Greiner Bio-one, #784101); plates were assembled using a BioTek MultiFlo™ Microplate Dispenser. For dose-dependent Bodipy FL-GTP binding assays, total and non-specific binding were assessed by pre-incubation (30 min/4° C.) in the absence or presence of 30 μM GTP, respectively. […]

[8] = multiplex dose response, listed as guanabenz acetate

For `CC1(C)Cc2c(sc(NC(=S)NC(=O)c3ccccc3)c2C(=O)O)CO1` [CID1067700], the “inhibitory activity on guanine nucleotide binding” value [1] is listed as “inhibitory activity against H-Ras and H-RasG12V; also recorded: broad spectrum inhibitor of the Rab and Rho subfamilies; also recorded: competitive inhibitor of nucleotide binding”.
With `N=C(N)N/N=C/c1c(Cl)cccc1Cl` [Guanabenz acetate] the “association of Bodipy FL-GTP” value ([2]; guanabenz added first at 4° C., then Bodipy FL-GTP at room temperature, KRas G12v and HRas G12V vs Kras Q61R, Rac1 L61 and CDC42) was “Dramatic differences in association”, the “displacement of pre-bound Bodipy FL-GTP” value ([2]; pre-binding at 4° C. or RT in the presence of Mg2+) was “not able to displace Bodipy FL-GTP” and the “dissociation of Bodipy FL-GTP” value ([2]; stable GTPases in the absence of Mg) was “did not induce dissociation”. The “effect on GTP binding to Q61 KRas mutants” value [3] was “not to Q61 KRas mutants”, the “selectivity among GTPases (RAS vs non-RAS, individual proteins)” value ([4]; multiplex dose response) was “selective for KRas WT, the KRas G12 mutants, and the HRas proteins” and the “activity or affinity relative to other compounds” value [4, 8] was “most active; also recorded: comparable activity to a recently described KRas inhibitor with low μM affinity”. The “selectivity among GTPases (RAS vs non-RAS, individual proteins)” value [4, 8] was “does not appear to limit selectivity to G12D”, the “class of modulation of Bodipy-GTP binding to Ras family GTPases (pan activator, pan inhibitor, selective inhibitor, mixed activity modulator)” value [4] was “selective inhibitors” and the “class of modulation of Bodipy-GTP binding to Ras family GTPases (pan activator, pan inhibitor, selective inhibitor, mixed activity modulator)” value ([4]; listed as guanabenz acetate) was “Selective inhibitors”.
For `O=C(c1ccccc1)c1ccc2n1CC[C@H]2C(=O)O` [R-ketorolac], the pIC50 [5] is given as 6.00 to 6.30.
In the case of `O=C(c1ccccc1)c1ccc2n1CCC2C(=O)O` (centres unmarked) [ketorolac], the reported activity [6] is listed as “inhibitors”.
In the case of `CSc1ccc(/C=C2/C(C)=C(CC(=O)O)c3cc(F)ccc32)cc1` [sulindac sulfide], the reported activity [6] is given as “inhibitors”.
In the case of “Guanosine 5′-Triphosphate, BODIPY™ FL 2′-(or-3′)-O-(N-(2-Aminoethyl) Urethane), Trisodium Salt [Bodipy FL-GTP]”, the pKd [7] was 7.30 to 9.00.
